Data as given in patent US6916844B2, “Hydroxy pyranone derivative and preparation method thereof” (Amorepacific Corporation, priority 2002, dated 2005).

Key:
Human fibroblasts [1] = test: Effect on biosynthesis of collagen (procollagen type (I) ELISA); format: cell-based; conditions: 10^-4 M, 24 hours, relative to untreated control group = 100
Protocol: The effect of the hydroxy pyranone derivatives obtained in Examples 1˜6 on biosynthesis of collagen was compared with those of retinol and retinoic acid.
Human fibroblasts were seeded into a 24-well plate to a density of 10^5 cells/well and then cultured to 90% of growth. The plate was washed with PBS (phosphate buffered saline) and treated with test samples at a concentration of 10^−4M, and then incubated in a CO2 incubator for 24 hours. From its supernatant, procollagen production was measured with procollagen type (I) ELISA kit. The biosynthesis of collagen was evaluated as a relative value compared with that of the control group, which is not treated with sample and of which the value of biosyntheis of collagen was set to be 100.

Human fibroblasts [2] = test: Collagenase-inhibiting effect (collagenase expression, ELISA kit); format: cell-based; conditions: 10^-4 M, 24 hours, relative to untreated control group = 100
Protocol: The collagenase-inhibiting effect of hydroxy pyranone derivatives obtained in Examples 1˜6 was compared with those of retinol and retinoic acid.
Human fibroblasts were cultured in Dulbecco's Modified Eagle's Medium (DMEM) supplemented with 2.5% fetal bovine serum. The fibroblasts were seeded into a 96-well microtiter plate to a density of 5,000 cells/well, and then cultured to 70˜80% of growth. The plate was treated with test samples at a concentration of 10^−4M for 24 hours, then the cultured medium and the cells were raked up and recovered. From the recovered culture, collagenase production was measured with collagenase kit (Catalog #: RPN 2610) commercialized by Amersham Pharmacia Biotech. First, the recovered culture was added into a 96-well plate wherein primary collagenase antibodies were uniformly spread, and then antigen-antibody reaction was performed in an incubator for 3 hours. Later, secondary collagenase antibodies bonded with chromophore were added to the 96-well plate and reacted for 15 minutes. Then, color former was added thereto in order to induce development at the room temperature for 15 minutes, and 1M of sulfuric acid was added to stop the reaction. The reaction solution became yellow, and the color density depends on the progress of the reaction. The absorbance of the yellow 96-well plate was measured at 405 nm with absorptiometer. The expression of collagenase was calculated by the following equation 1. No sample was treated in the control group.
[Equation 1] The expression of collagenase (%)=[(Absorbance of test group)/(Absorbance of control group)]×100
The expression of collagenase was evaluated as a relative value compared with that of the control group of which the expression of collagenase was set to be 100.

rabbits = test: Primary skin irritation test on animals (Draize P.I.I.); format: in vivo; conditions: 1% in 1,3-butylene glycol:ethanol=7:3, 0.5 ml, observed 24 and 72 hours later
Protocol: This test was performed for six (6) healthy male rabbits whose hairs on both sides of the backs were cut. The compounds of Examples 1˜6 were dissolved in 1,3-butylene glycol:ethanol=7:3, to obtain 1% concentration of test samples. 0.5 ml of each test samples were applied to right side area of 2.5 cm×2.5 cm. No sample was treated on left side as a control. 24 hours and 72 hours later, skin abnormality such as erythema, crust and edema was observed. Based on the score of skin response, skin irritation was estimated according to Draize's P.I.I. (Primary Irritation Index) and compared with that of retinoic acid.

white guinea pigs = test: Phototoxicity test; format: in vivo; conditions: 1% (w/v) solution, UVA 15 J/cm^2, observed at 24, 48 and 72 hours; for Phototoxic index: below 0.5 = no phototoxicity
Protocol: This test was performed for ten (10) white guinea pigs whose hairs on both sides of the backs were cut, and fixed. On the back of the guinea pig, six (6) test sites measuring 2.5 cm×2.5 cm, three (3) per each side, were sectioned. Right sites were prepared as controls with no irradiation (UV non-irradiation sites) and left sites were irradiated (UV irradiation sites). Vehicle (1,3-butylene glycol:ethanol=7:3) was used as a negative control, and 0.1% concentration of 8-MOP (methoxypsoralene) was used as a positive control; and 1% (w/v) solutions of the compounds of Examples 1˜6 were applied to either site with an amount of […] for each site. 30 minutes later, right sites were shielded with aluminum foil and UVA(320˜380 nm) was irradiated at a distance of about 10 cm therefrom with Waldmann to the final energy of 15 J/cm^2. After 24, 48 and 72 hours elapsed, skin response of guinea pig was observed. Erythema and edema were scored from 0 to 4 points as shown in the Table 3, and skin response was evaluated by summing the scores. Maximum scores were selected when measured on each elapsed time, i.e. 24, 48 and 72 hours, and irritation index was calculated according to the following equation 2. Then, phototoxic index was calculated according to the following equation 3.
[Equation 2] Irritation index=(Maximum of erythema+Maximum of edema)/Number of animals [Equation 3] Phototoxic index=(Irritation index of UV irradiation site)−(Irritation index of UV non-irradiation site)

[3] = test system: healthy females and males; test: Human patch test; format: in vivo; conditions: 1% in patch base; for Average Response (n = 30): calculated by equation 4, below 1 = no irritation; for Number of the subjected showing response, 24 hours later, − (No visible response) / Number of the subjected showing response, 24 hours later, ± (Mild erythema) / Number of the subjected showing response, 24 hours later, + (Intense erythema) / Number of the subjected showing response, 24 hours later, + + (Intense erythema with edema) / Number of the subjected showing response, 24 hours later, + + + (Intense erythema with edema and vesicle): n = 30, 24 hours later; for Number of the subjected showing response, 24 hours later, − (No visible response) / Number of the subjected showing response, 48 hours later, − (No visible response): grade 0; for Number of the subjected showing response, 24 hours later, ± (Mild erythema) / Number of the subjected showing response, 48 hours later, ± (Mild erythema): grade 1; for Number of the subjected showing response, 24 hours later, + (Intense erythema) / Number of the subjected showing response, 48 hours later, + (Intense erythema): grade 2; for Number of the subjected showing response, 24 hours later, + + (Intense erythema with edema) / Number of the subjected showing response, 48 hours later, + + (Intense erythema with edema): grade 3; for Number of the subjected showing response, 24 hours later, + + + (Intense erythema with edema and vesicle) / Number of the subjected showing response, 48 hours later, + + + (Intense erythema with edema and vesicle): grade 4; for Number of the subjected showing response, 48 hours later, − (No visible response) / Number of the subjected showing response, 48 hours later, ± (Mild erythema) / Number of the subjected showing response, 48 hours later, + (Intense erythema) / Number of the subjected showing response, 48 hours later, + + (Intense erythema with edema) / Number of the subjected showing response, 48 hours later, + + + (Intense erythema with edema and vesicle): n = 30, 48 hours later
Protocol: This test was performed for thirty (30) healthy females and males aged on average 24.8 years and having no experience of hypersensitivity, according to method of CTFA Guideline (The Cosmetic, Toiletry and Fragrance Association. Inc. Washington, D.C., 20023, 1991). Each compound of Examples 1˜6 was dissolved in patch base having the composition of Table 6 to be 1% concentration as for test materials, and 20 μl of each test materials was dropped into a Finn chamber respectively, then attached to the forearm of the subject and fixed with a micropore tape. After 24 hours of patching, the patches were removed and the test sites were marked with marking pen. The observations of the test sites were made after 24 and 48 hours from the patching.
The average response of Table 8 was calculated by the following equation 4. [formula]

Row | Structure (SMILES) | Biosynthesis of collagen (%) (Human fibroblasts [1]) | Expression of collagenase (%) (Human fibroblasts [2]) | Evaluation (skin irritation) (rabbits) | P. I. I. (Primary Irritation Index) (rabbits) | Evaluation (phototoxicity) (white guinea pigs) | Phototoxic index (white guinea pigs) | Average Response (n = 30) [3] | Number of the subjected showing response, 24 hours later, − (No visible response) [3] | Number of the subjected showing response, 24 hours later, ± (Mild erythema) [3] | Number of the subjected showing response, 24 hours later, + (Intense erythema) [3] | Number of the subjected showing response, 24 hours later, + + (Intense erythema with edema) [3] | Number of the subjected showing response, 24 hours later, + + + (Intense erythema with edema and vesicle) [3] | Number of the subjected showing response, 48 hours later, − (No visible response) [3] | Number of the subjected showing response, 48 hours later, ± (Mild erythema) [3] | Number of the subjected showing response, 48 hours later, + (Intense erythema) [3] | Number of the subjected showing response, 48 hours later, + + (Intense erythema with edema) [3] | Number of the subjected showing response, 48 hours later, + + + (Intense erythema with edema and vesicle) [3]
1 | O=c1cc(/C=C/c2ccc3c(c2)OCO3)occ1O [Compound of Ex. 5, 2-((1E)-2-(2H,3H-benzo [3,4-d] 1,3-dioxolan-5-yl)vinyl)-5-hydroxy-4H-pyran-4-one] | 116% | 88% | No irritation | 0.375 | No phototoxicity | 0 | 0.00 | 30 | 0 | 0 | 0 | 0 | 30 | 0 | 0 | 0 | 0
2 | O=C(OCc1cc(=O)c(O)co1)c1ccc2c(c1)OCO2 [Compound of Ex. 1, (5-hydroxy-4-oxo-4H-pyran-2-yl)methyl 2H-benzo [3,4-d] 1,3-dioxolan-5-carboxylate] | 118% | 83% | No irritation | 0.375 | No phototoxicity | 0 | 0.83 | 28 | 2 | 0 | 0 | 0 | 30 | 0 | 0 | 0 | 0
3 | CC1=C(/C=C/C(C)=C/C=C/C(C)=C/CO)C(C)(C)CCC1 [Retinol, reference compound] | 120% | 82% | – | – | – | – | – | – | – | – | – | – | – | – | – | – | –
